Laboratory results taken from EP0092830A2, “Cephalosporin derivatives, process for their preparation, pharmaceutical compositions containing them and their application” (CIBA-GEIGY AG, priority 1982, dated 1983).

Columns and labels:
Escherichia coli 205 = test: chemotherapeutic efficacy in vivo against systemic infection in mice (method of Zak et al.); conditions: systemic infection in female SPF, MF2 mice
Excerpt: (§1) B. Die chemotherapeutische Wirksamkeit in vivo gegen systemische Infektionen in weiblichen SPF, MF2 Mäusen wurde nach der Methode von Zak, 0. et al., 1979, Drugs Exptl. Clin. Res. 5, 45-59, ermittelt. Die gefundenen EDS50-Werte in Milligramm Substanz pro Kilogramm Maus (mg/kg) für eine Anzahl von Mikroorganismen werden für die oral (p.o.) oder subcutan (s.c.) applizierten, Testverbindungen in der Tabelle 2 angegeben.

[1] = system: Staphylococcus aureus 10 B; test: as above; conditions: systemic infection in female SPF, MF2 mice; for ED50 Staphylococcus aureus 10 B: s.c.; for ED50: Staphylococcus aureus, 10B
Excerpt: as §1

[2] = Escherichia coli, 205, po, p.o.
[3] = Escherichia coli, 205, sc, s.c.

Row | Structure (SMILES) | ED50 Escherichia coli 205 (Escherichia coli 205; p.o.) [mg/kg] | ED50 Escherichia coli 205 (Escherichia coli 205; s.c.) | ED50 Staphylococcus aureus 10 B [1] [mg/kg] | ED50 (Escherichia coli 205; [2]) [mg/kg] | ED50 (Escherichia coli 205; [3]) [mg/kg] | ED50 ([1]; sc) [mg/kg] | ED50 ([1]; po) [mg/kg]
1 | CN(C)CCn1nnnc1SCC1=C(C(=O)O)N2C(=O)[C@@H](NC(=O)C(NS(=O)(=O)CCN)c3csc(N)n3)[C@H]2SC1 (stereo partly drawn) [Beispiel 20, 3-[1-(2-Dimethylaminoäthyl)-1H-tetrazol-5-ylthiomethyl]-7ß-[(2R,S)-2-(2-aminoäthansulfonylamino)-2-(2-aminothiazol-4-yl)-acetamido]-3-cephem-4-carbonsäure] | 8 | 0,8 mg/kg | >30 |  |  |  | 
2 | NCCS(=O)(=O)NC(C(=O)N[C@@H]1C(=O)N2C(C(=O)[O-])=C(CSc3nnnn3CC(=O)O)CS[C@H]12)c1csc(N)n1.[Na+] (stereo partly drawn) [Testverbindung 5, 3-(1-Carboxymethyl-1H-tetrazol-5-ylthiomethyl)-7ß-[(2R,S)-2-(2-aminoäthansulfonylamino)-2-(2-aminothiazol-4-yl)-acetamido]-3-cephem-4-carbonsäure-natriumsalz] | 2 | 0,45 mg/kg | 78 |  |  |  | 
3 | NCCS(=O)(=O)NC(C(=O)N[C@@H]1C(=O)N2C(C(=O)[O-])=C(CSc3nnnn3CS(=O)(=O)O)CS[C@H]12)c1csc(N)n1.[Na+] (stereo partly drawn) [Testverbindung 6, 3-(1-Sulfomethyl-1H-tetrazol-5-ylthiomethyl)-7ß-[(2R,S)-2-(2-aminoäthansulfonylamino)-2-(2-aminothiazol-4-yl)-acetamido]-3-cephem-4-carbonsäurematriumsalz] | 10 | 6,0 mg/kg | >30 |  |  |  | 
4 | CS(=O)(=O)NC(C(=O)N[C@@H]1C(=O)N2C(C(=O)[O-])=C(C[n+]3ccc(C(N)=O)cc3)CS[C@H]12)c1csc(N)n1 (stereo partly drawn) [Testverbindung 9, 3-(4-Carbamoylpyridiniomethyl)-7ß-[(2R,S)-2-(2-aminothiazol-4-yl)-2-methansulfonylaminoacetamido]-3-cephem-4-carbonsäure] |  | 25 mg/kg | 55 |  |  |  | 
5 | CC(=O)OCC1=C(C(=O)O)N2C(=O)[C@@H](NC(=O)C(NS(=O)(=O)CCNC=O)c3csc(N)n3)[C@H]2SC1 (stereo partly drawn) [Testverbindung 39] |  |  |  | 5.5 | 0.8 | 10 | 
6 | CS(=O)(=O)N[C@H](C(=O)N[C@@H]1C(=O)N2C(C(=O)O)=C(COC(N)=O)CS[C@H]12)c1csc(N)n1 [Testverbindung 40] |  |  |  | 0.9 | 0.1 | 3 | 
7 | C=CC(=O)NCCS(=O)(=O)NC(C(=O)N[C@@H]1C(=O)N2C(C(=O)O)=C(CSc3nnnn3C)CS[C@H]12)c1csc(N)n1 (stereo partly drawn) [Testverbindung 41] |  |  |  | 10 | 2 | 24 | 
8 | C=CC(=O)NCCS(=O)(=O)N[C@H](C(=O)N[C@@H]1C(=O)N2C(C(=O)O)=C(COC(N)=O)CS[C@H]12)c1csc(N)n1 [Testverbindung 42] |  |  |  | 2.5 | 0.1 | 15 | 
9 | CC(=O)NCCS(=O)(=O)NC(C(=O)N[C@@H]1C(=O)N2C(C(=O)O)=C(CSc3nnnn3C)CS[C@H]12)c1csc(N)n1 (stereo partly drawn) [Testverbindung 43] |  |  |  | 8 | 1 | 50 | 
10 | CS(=O)(=O)NC(C(=O)N[C@@H]1C(=O)N2C(C(=O)O)=C(CSc3nnnn3CS(=O)(=O)O)CS[C@H]12)c1csc(N)n1 (stereo partly drawn) [Testverbindung 44] |  |  |  |  | < 1 | 85 | 
11 | CS(=O)(=O)NCCS(=O)(=O)NC(C(=O)N[C@@H]1C(=O)N2C(C(=O)O)=C(COC(N)=O)CS[C@H]12)c1csc(N)n1 (stereo partly drawn) [Testverbindung 45] |  |  |  |  |  | 55 | 90
12 | NC(=O)OCC1=C(C(=O)O)N2C(=O)C(NC(=O)C(NS(=O)(=O)CCNS(=O)(=O)c3ccc(N)cc3)c3csc(N)n3)C2SC1 (stereo not drawn) [Testverbindung 46] |  |  |  |  | < 1 | 9 | 
13 | CC(=O)OCC1=C(C(=O)O)N2C(=O)[C@@H](NC(=O)C(NS(=O)(=O)CCNS(=O)(=O)c3ccc(N)cc3)c3csc(N)n3)[C@H]2SC1 (stereo partly drawn) [Testverbindung 47] |  |  |  | > 30 | 2.8 | 5 | 100
